Reference: patent US10245249B2, “Pharmaceutical compositions comprising nitroxyl donors” (Cardioxyl Pharmaceuticals, Inc., priority 2013, dated 2019)
Several values for one entry are separate records, joined by “and”; a condition that tells them apart may be missing. Equal values may be shown once.

Columns and labels:
[1] = system: dogs; experiment: 14-day continuous infusion tolerance studies of CXL-1020 in dogs; assay type: in vivo
Method: During in vivo trials of the nitroxyl donor CXL-1020 (N-hydroxy-2-methanesulfonylbenzene-1-sulfonamide), a 14-day study was conducted to evaluate tolerance in dogs treated with continuous infusions of CXL-1020 at dose rates of up to 90 μg/kg/min.
To further investigate this undesirable side-effect, a follow-up 14-day study in dogs was initiated.

[2] = system: patients with systolic heart failure; details: cited from earlier work
[3] = Concentrate storage stability, compound of formula (2) 30 mg/mL in 30% CAPTISOL pH 4.0 (Example 8); assay type: physicochemical; design: key to Appearance 0 h / Appearance 24 h / Appearance 72 h / Appearance 168 h: the term “c/c” refers to clear and colorless; details: for Concentration, mg/mL 0 h / Concentration, mg/mL 24 h / Concentration, mg/mL 72 h / Concentration, mg/mL 168 h: 30 mg/mL concentrate in 30% CAPTISOL pH 4.0; for Appearance 0 h / Appearance 24 h / Appearance 72 h / Appearance 168 h / Observed Degradant, Compound of Formula (101), mg/mL 0 h / Observed Degradant, Compound of Formula (101), mg/mL 24 h / Observed Degradant, Compound of Formula (101), mg/mL 72 h / Observed Degradant, Compound of Formula (101), mg/mL 168 h / pH 0 h / pH 24 h / pH 72 h / pH 168 h: concentrate
Method: The storage stability of a liquid concentrate of the Compound of formula (2) (30 mg/mL) in the vehicle 30% CAPTISOL® (w/v) at pH 4.0, was assessed at 4° C. and 25° C. over 7 days, with time points after 1, 3 and 7 days. At each time point samples were assessed for visual appearance, pH, and concentration and purity by HPLC (XBridge Phenyl Column (Waters); UV absorbance detector at 272 nm; mobile phase a step gradient of aqueous acetonitrile containing 0.1% (v/v) formic acid).
The selected vehicle, CAPTISOL® (30% w/v) in water with pH adjusted to 4.0, was prepared by accurately weighing 30 grams of CAPTISOL® into a 150 mL beaker and dissolved with 45 mL of water. The pH was adjusted to pH 4.0 by addition of 0.1N HCl. Subsequently, the vehicle was transferred to a volumetric flask and brought to 100 mL final volume by addition of water. After incubation at a temperature of about 25° C. for 30 minutes, the pH of the vehicle was re-adjusted to pH 4.0 by addition of 0.1N HCl. The vehicle formed a clear, colorless solution.
A concentrated solution of the compound of formula (2) was prepared as follows. A stir bar and 30 mL of vehicle were added to a 150 mL beaker. Approximately […] of the compound of formula (2) was dispensed and transferred to the beaker under low to medium stirring. After 45 minutes of stirring at a temperature of about 25° C. (protected from light), the concentrate formed a clear, colorless solution with some small, white clumps of the compound of formula (2) floating in solution. The remaining clumps were gently broken-up using a spatula. Following an additional 45 minutes of stirring, the concentrate formed a clear, colorless solution without any visible solids. The concentrate was then filtered (0.2 μm) through a 0.22 μm PVDF syringe filter.
For t=0 h testing, aliquots were distributed into vials and analyzed by HPLC (XBridge Phenyl Column (Waters); UV absorbance detector at 272 nm; mobile phase a step gradient of aqueous acetonitrile containing 0.1% (v/v) formic acid) and the sample pH was determined. Twelve aliquots of 1 mL of the concentrate were distributed into microcentrifuge tubes for storage at 4° C. and 25° C. After approximately 24, 72 and 168 hours of storage, two aliquots were removed from each storage condition and assessed for visual appearance, pH, and concentration and purity by HPLC. […] The pH of the samples stored at 4° C. and 25° C. decreased from 3.7 to 3.6 and 3.3, respectively, over the 7 days. In Table 12, the term “c/c” refers to clear and colorless.

For CS(=O)(=O)c1ccccc1S(=O)(=O)NO [CXL-1020, N-hydroxy-2-methanesulfonylbenzene-1-sulfonamide, reference compound], the dose rate tolerated ([1]; 14-day continuous infusion, dogs) is listed as 60 µg/kg/min, the “side effects in follow-up 14-day study” value ([1]; dog, in vivo) is listed as “significant swelling and inflammation in the dogs' hind limbs” and the “hemodynamic effects in patients with systolic heart failure” value ([2]; intravenous aqueous solution at pH=4) is listed as “reduced both left and right heart filling pressures and systemic vascular resistance, while increasing cardiac and stroke volume index”. For the same compound, the “side effects at threshold doses needed to produce hemodynamic effects” value ([2]; intravenous) was “unacceptable levels of inflammatory irritation at and distal to the intravenous insertion site”.

With CS(=O)(=O)c1cccc(S(=O)(=O)NO)c1 [Compound 2, N-Hydroxy-3-methanesulfonylbenzene-1-sulfonamide] the concentration sustained ([3]; 4° C. and 25° C., over 7 days) was 30000 µg/mL, the “known degradant (compound of formula (101))” value ([3]; 4° C. and 25° C., over 7 days) was “No detectable levels” and the “visual appearance of all samples” value ([3]; 4° C. and 25° C., over 7 days) was “clear, colorless solutions”. For the same compound, the “Concentration, mg/mL 0 h” value ([3]; 4° C.) was 30.3 mg/mL, the “Concentration, mg/mL 24 h” value ([3]; 4° C.) was 30.6 mg/mL and 30.2 mg/mL and the “Concentration, mg/mL 72 h” value ([3]; 4° C.) was 29.6 mg/mL and 29.4 mg/mL. The “Concentration, mg/mL 168 h” value ([3]; 4° C.) was 29.7 mg/mL and 29.9 mg/mL, the “Appearance 0 h” value ([3]; 4° C.) was “c/c” and the “Appearance 24 h” value ([3]; 4° C.) was “c/c”. For the same compound, the “Appearance 72 h” value ([3]; 4° C.) was “c/c”, the “Appearance 168 h” value ([3]; 4° C.) was “c/c” and the “Observed Degradant, Compound of Formula (101), mg/mL 0 h” value ([3]; 4° C.) was “No”. The “Observed Degradant, Compound of Formula (101), mg/mL 24 h” value ([3]; 4° C.) was “No”, the “Observed Degradant, Compound of Formula (101), mg/mL 72 h” value ([3]; 4° C.) was “No” and the “Observed Degradant, Compound of Formula (101), mg/mL 168 h” value ([3]; 4° C.) was “No”. For the same compound, the “pH 0 h” value ([3]; 4° C.) was 3.7 and 3.71, the “pH 24 h” value ([3]; 4° C.) was 3.70 and the “pH 72 h” value ([3]; 4° C.) was 3.66. The “pH 168 h” value ([3]; 4° C.) was 3.6 and 3.61 and 3.58, the “Concentration, mg/mL 0 h” value ([3]; 25° C.) was 30.3 mg/mL and the “Concentration, mg/mL 24 h” value ([3]; 25° C.) was 30.2 mg/mL. The “Concentration, mg/mL 72 h” value ([3]; 25° C.) was 29.4 mg/mL and 29.8 mg/mL, the “Concentration, mg/mL 168 h” value ([3]; 25° C.) was 29.5 mg/mL and 29.4 mg/mL and the “Appearance 0 h” value ([3]; 25° C.) was “c/c”. The “Appearance 24 h” value ([3]; 25° C.) was “c/c”, the “Appearance 72 h” value ([3]; 25° C.) was “c/c” and the “Appearance 168 h” value ([3]; 25° C.) was “c/c”. For the same compound, the “Observed Degradant, Compound of Formula (101), mg/mL 0 h” value ([3]; 25° C.) was “No”, the “Observed Degradant, Compound of Formula (101), mg/mL 24 h” value ([3]; 25° C.) was “No” and the “Observed Degradant, Compound of Formula (101), mg/mL 72 h” value ([3]; 25° C.) was “No”. The “Observed Degradant, Compound of Formula (101), mg/mL 168 h” value ([3]; 25° C.) was “No”, the “pH 0 h” value ([3]; 25° C.) was 3.71 and the “pH 24 h” value ([3]; 25° C.) was 3.47 and 3.48. For the same compound, the “pH 72 h” value ([3]; 25° C.) was 3.34 and the “pH 168 h” value ([3]; 25° C.) was 3.3 and 3.32.
